# Data reported in US20100222421A1, “Usage of Baicalein in the Preparation of a Pharmaceutical Composition for the Treatment of Traumatic Brain Injury” (National Defense Medical Center, priority 2009, published 2010).
# System: rats with controlled cortical impact (CCI) injury
# Assay: Cortical contusion volume, cresyl violet staining
# Format: in vivo, rat
# Protocol: A previously described CCI injury procedure was utilized (Chen et al., 2003). Male Sprague-Dawley rats, which have body weight of 250-300 g, were anaesthetized with sodium pentobarbital (i.p.; 50 mgkg^−1; Rhone Merieux, Harlow, UK) and placed in a stereotaxic frame. A 5-mm craniotomy was performed over the left parietal cortex, centered on the coronal suture and 3 mm lateral to the sagittal suture. Considerable care was taken to avoid injury to the underlying dura. Injury was made using a pneumatic piston with a rounded metal tip (2.5 mm diameter) that was angled 22.5° C. to the vertical so that the tip was perpendicular with the brain surface at the centre of the craniotomy. A velocity of 4 ms^−1 and a deformation depth 2 mm below the dura were used. The bone flap was immediately replaced and sealed, and the scalp was closed with sutures. Body temperature was monitored throughout the surgery by a rectal probe; temperature was maintained at 37.0±0.5° C. using a heated pad. Rats were placed in a heated cage to maintain body temperature, while recovering from anaesthesia. Baicalein (30 mg kg^−1) dissolved in 10% dimethyl sulphoxide (0.25-0.3 mL) or a corresponding volume of vehicle (10% dimethyl sulphoxide) was administered i.p. immediately following injury or daily for 4 days (immediately, 25, 49 and 73 h) after injury. Behaviour testing using the rotarod, tactile adhesive removal, mNSS and beam walk tests was performed at 28 hours as well as 4, 7, 14, 21 and 28 days post-injury. At 14 and 28 days, the animals were killed, perfused intravascularly and their brains were processed with cresyl violet staining to assess contusion volume (n=8 for each group). […] Following with terminal anaesthesia, rats were killed by transcardial perfusion first with phosphate-buffered saline (PBS) and then with 4% paraformaldehyde and their tissues were processed on day 1 (for FJB staining and cytokine immunohistochemistry), day 14 (for cresyl violet histology) and day 28 (for cresyl violet histology), post-injury. All solutions were maintained at pH 7.4 and 4° C. Brains were removed and post-fixed in 4% paraformaldehyde overnight and transferred to PBS containing 30% sucrose and 0.1% sodium azide, manufactured by Sigma Chemical Co. located at St Louis, Mo., USA, for cryoprotection. Coronal sections were cut in a cryostat at […] from the level of the olfactory bulbs to the visual cortex. Every 50th slice was used for cresyl violet histology, FJB staining or immunohistochemistry. The distance between similarly stained sections within each group was thus […], with approximately 20 sections per group. […] To measure contusion volumes, cresyl violet-stained sections were digitized and analyzed using a ×1.5 objective and computer image analysis system (Scion Image, Beta Release 4.0.2; Scion Corp., Frederick, Md., USA). […] Contusion area was calculated from all images of cresyl violet-stained sections that contained contused brain; volume measurement was computed by summation of areas multiplied by interslice distance (500 μm).
smiles,measurement,setting,value
O=c1cc(-c2ccccc2)oc2cc(O)c(O)c(O)c12 [baicalein],"contusion volume, single-dose versus multiple-dose groups","30 mg kg^-1 i.p., days 14 and 28, P>0.05",no significant difference
same,reduction of contusion volume versus vehicle,"multiple doses 30 mg kg^-1 i.p. daily for 4 days, 14 days post-injury",42%
same,reduction of contusion volume versus vehicle,"multiple doses 30 mg kg^-1 i.p. daily for 4 days, 28 days post-injury",42%
same,reduction of contusion volume versus vehicle,"single dose 30 mg kg^-1 i.p., 14 days post-injury",32%
same,reduction of contusion volume versus vehicle,"single dose 30 mg kg^-1 i.p., 28 days post-injury",34%
